The values that follow come from patent US10329320B2, “Neuroactive steroids, compositions, and uses thereof” (Sage Therapeutics, Inc., priority 2015, dated 2019).

Broadly, the IC50 is the concentration needed to halve the response being measured.

This assay addresses GABAA receptor ([35S]-TBPS binding, rat brain cortical membranes). The assay can be described thus: Steroid inhibition of [35S]-TBPS binding (radioligand displacement). The note with it: 3 nM [35S]-TBPS, in the presence of 5 μM GABA. How it is done: TBPS binding assays using rat brain cortical membranes in the presence of 5 μM GABA has been described (Gee et al, J. Pharmacol. Exp. Ther. 1987, 241, 346-353; Hawkinson et al, Mol. Pharmacol. 1994, 46, 977-985; Lewin, A. H et al., Mol. Pharmacol. 1989, 35, 189-194).
Briefly, cortices are rapidly removed following decapitation of carbon dioxide-anesthetized Sprague-Dawley rats (200-250 g). The cortices are homogenized in 10 volumes of ice-cold 0.32 M sucrose using a glass/teflon homogenizer and centrifuged at 1500×g for 10 min at 4° C. The resultant supernatants are centrifuged at 10,000×g for 20 min at 4° C. to obtain the P2 pellets. The P2 pellets are resuspended in 200 mM NaCl/50 mM Na—K phosphate pH 7.4 buffer and centrifuged at 10,000×g for 10 min at 4° C. This washing procedure is repeated twice and the pellets are resuspended in 10 volumes of buffer. Aliquots (100 μL) of the membrane suspensions are incubated with 3 nM [^35S]-TBPS and 5 μL aliquots of test drug dissolved in dimethyl sulfoxide (DMSO) (final 0.5%) in the presence of 5 μM GABA. The incubation is brought to a final volume of 1.0 mL with buffer. Nonspecific binding is determined in the presence of 2 μM unlabeled TBPS and ranged from 15 to 25%. Following a 90 min incubation at room temp, the assays are terminated by filtration through glass fiber filters (Schleicher and Schuell No. 32) using a cell harvester (Brandel) and rinsed three times with ice-cold buffer. Filter bound radioactivity is measured by liquid scintillation spectrometry. Non-linear curve fitting of the overall data for each drug averaged for each concentration is done using Prism (GraphPad). […] The concentration of test compound producing 50% inhibition (IC50) of specific binding and the maximal extent of inhibition (Imax) are determined for the individual experiments with the same model used for the overall data and then the means ±SEM.s of the individual experiments are calculated.
Various compounds are or can be screened to determine their potential as modulators of [^35S]-TBPS binding in vitro. These assays are or can be performed in accordance with the above discussed procedures.
(In a radioligand displacement assay an active substance lowers the binding of a labelled ligand.)
With `COC[C@]12CC[C@@](C)(O)C[C@@H]1CC[C@H]1[C@@H]3CC[C@H](C(=O)Cn4cc5c(OC)cccc5n4)[C@@]3(C)CC[C@@H]12` [Compound 44], the IC50 lay within 10 to 50 nM.
As for `COC[C@]12CC[C@@](C)(O)C[C@H]1CC[C@H]1[C@@H]3CC[C@H](C(=O)Cn4ncc5ccc(F)cc54)[C@@]3(C)CC[C@@H]12` [Compound 15], the 50% inhibitory concentration (IC50) is below 10 nM.
For `COC[C@]12CC[C@@](C)(O)C[C@@H]1CC[C@H]1[C@@H]3CC[C@H](C(=O)Cn4cc5ccc(OC)cc5n4)[C@@]3(C)CC[C@@H]12` [Compound 42], the IC50 lay within 10 to 50 nM.
Turning to `COC[C@]12CC[C@@](C)(O)C[C@H]1CC[C@H]1[C@@H]3CC[C@H](C(=O)Cn4nc5ccc(Cl)c(F)c5n4)[C@@]3(C)CC[C@@H]12` [Compound 24], the IC50 is below 10 nM.
Consider `COC[C@]12CC[C@@](C)(O)C[C@@H]1CC[C@H]1[C@@H]3CC[C@H](C(=O)Cn4cc5c(OC)cccc5n4)[C@@]3(C)CC[C@@H]12` [Compound 40], for which the IC50 lay in the range of 50 to 100 nM.
Consider `COC[C@]12CC[C@@](C)(O)C[C@@H]1CC[C@H]1[C@@H]3CC[C@H](C(=O)Cn4ncc(C(=O)O)n4)[C@@]3(C)CC[C@@H]12` [Compound 81], for which the IC50 was above 500 nM.
In the case of `COC[C@]12CC[C@@](C)(O)C[C@@H]1CC[C@H]1[C@@H]3CC[C@H](C(=O)Cn4ncc5cccnc54)[C@@]3(C)CC[C@@H]12` [Compound 47], the IC50 was 10 to 50 nM.
For the compound `COC[C@]12CC[C@@](C)(O)C[C@@H]1CC[C@H]1[C@@H]3CC[C@H](C(=O)Cn4ncc5ccc(OC)cc54)[C@@]3(C)CC[C@@H]12` [Compound 49], the IC50 was in the range of 50 to 100 nM.
For the compound `COC[C@]12CC[C@@](C)(O)C[C@H]1CC[C@H]1[C@@H]3CC[C@H](C(=O)Cn4nnc5ccccc54)[C@@]3(C)CC[C@@H]12` [Compound 18], the IC50 is below 10 nM.
Take `COC[C@]12CC[C@@](C)(O)C[C@H]1CC[C@@H]1[C@@H]2CC[C@]2(C)C(C(=O)Cn3nnnc3C)CC[C@@H]12` (some centres unmarked) [Compound 74]: the IC50 was 100 to 500 nM.
The figure for `COC[C@]12CC[C@@](C)(O)C[C@@H]1CC[C@H]1[C@@H]3CC[C@H](C(=O)Cn4nc5cc(F)cc(F)c5n4)[C@@]3(C)CC[C@@H]12` [Compound 10] is below 10 nM; for `COC[C@]12CC[C@@](C)(O)C[C@@H]1CC[C@H]1[C@@H]3CC[C@H](C(=O)Cn4cnc(F)c4)[C@@]3(C)CC[C@@H]12` [Compound 59] it is 100 to 500 nM.
Regarding `COC[C@]12CC[C@@](C)(O)C[C@H]1CC[C@H]1[C@@H]3CC[C@H](C(=O)Cn4cc(N)cn4)[C@@]3(C)CC[C@@H]12` [Compound 66], the IC50 fell in the range of 10 to 50 nM.
As for `COC[C@]12CC[C@@](C)(O)C[C@H]1CC[C@H]1[C@@H]3CC[C@H](C(=O)Cn4nnc5cc(OC)ccc54)[C@@]3(C)CC[C@@H]12` [Compound 26], the IC50 is below 10 nM.
For `COC[C@]12CC[C@@](C)(O)C[C@H]1CC[C@H]1[C@@H]3CC[C@H](C(=O)Cn4nc5cccc(OC)c5n4)[C@@]3(C)CC[C@@H]12` [Compound 30], the IC50 is below 10 nM.
On to `COC[C@]12CC[C@@](C)(O)C[C@H]1CC[C@H]1[C@@H]3CC[C@H](C(=O)Cn4cc5ccccc5n4)[C@@]3(C)CC[C@@H]12` [Compound 19], for which the IC50 was below 10 nM.
With `COC[C@]12CC[C@@](C)(O)C[C@@H]1CC[C@H]1[C@@H]3CC[C@H](C(=O)Cn4ncc(CO)n4)[C@@]3(C)CC[C@@H]12` [Compound 85], the IC50 is above 500 nM.
Take `CCOc1cnn(CC(=O)[C@H]2CC[C@H]3[C@@H]4CC[C@H]5C[C@](C)(O)CC[C@]5(COC)[C@H]4CC[C@]23C)c1` [Compound 61]: the IC50 is 100 to 500 nM.
With `COC[C@]12CC[C@@](C)(O)C[C@@H]1CC[C@H]1[C@@H]3CC[C@H](C(=O)Cn4cc(C)cn4)[C@@]3(C)CC[C@@H]12` [Compound 60], the IC50 lay in the range of 100 to 500 nM.
Regarding `COC[C@]12CC[C@@](C)(O)C[C@H]1CC[C@H]1[C@@H]3CC[C@H](C(=O)Cn4cc(C(F)(F)F)cn4)[C@@]3(C)CC[C@@H]12` [Compound 67], the half-inhibitory concentration (IC50) fell in the range of 10 to 50 nM.
Turning to `COC[C@]12CC[C@@](C)(O)C[C@H]1CC[C@H]1[C@@H]3CC[C@H](C(=O)Cn4nnc5cccc(OC)c54)[C@@]3(C)CC[C@@H]12` [Compound 29], the IC50 is below 10 nM.
As to `CC(C)OC[C@]12CC[C@@](C)(O)C[C@H]1CC[C@H]1[C@@H]3CC[C@H](C(=O)Cn4ncnn4)[C@@]3(C)CC[C@@H]12` [Compound 72], the IC50 is below 10 nM.
As to `COC[C@]12CC[C@@](C)(O)C[C@H]1CC[C@H]1[C@@H]3CC[C@H](C(=O)Cn4cc([S+](C)[O-])cn4)[C@@]3(C)CC[C@@H]12` (some centres unmarked) [Compound 22], the IC50 fell in the range of 100 to 500 nM.
Turning to `COC[C@]12CC[C@@](C)(O)C[C@H]1CC[C@H]1[C@@H]3CC[C@H](C(=O)Cn4cc(SC)cn4)[C@@]3(C)CC[C@@H]12` [Compound 34], the IC50 lay in the range of 10 to 50 nM.
With `COC[C@]12CC[C@@](C)(O)C[C@H]1CC[C@H]1[C@@H]3CC[C@H](C(=O)Cn4cc5cc(F)ccc5n4)[C@@]3(C)CC[C@@H]12` [Compound 17], the IC50 is 10 to 50 nM.
For the compound `COC[C@]12CC[C@@](C)(O)C[C@H]1CC[C@H]1[C@@H]3CC[C@H](C(=O)Cn4cc([S+](C)[O-])cn4)[C@@]3(C)CC[C@@H]12` (some centres unmarked) [Compound 35], the half-maximal inhibitory concentration (IC50) was above 500 nM.
For the compound `CC(C)OC[C@]12CC[C@@](C)(O)C[C@H]1CC[C@H]1[C@@H]3CC[C@H](C(=O)Cn4nc5ccc(F)c(F)c5n4)[C@@]3(C)CC[C@@H]12` [Compound 70], the IC50 is below 10 nM.
On to `COC[C@]12CC[C@@](C)(O)C[C@@H]1CC[C@H]1[C@@H]3CC[C@H](C(=O)Cn4ncc(C(N)=O)n4)[C@@]3(C)CC[C@@H]12` [Compound 83], for which the IC50 was 100 to 500 nM.
Consider `COC[C@]12CC[C@@](C)(O)C[C@H]1CC[C@H]1[C@@H]3CC[C@H](C(=O)Cn4cnc(F)c4)[C@@]3(C)CC[C@@H]12` [Compound 52], for which the IC50 lay in the range of 10 to 50 nM.
For `COC[C@]12CC[C@@](C)(O)C[C@H]1CC[C@H]1[C@@H]3CC[C@H](C(=O)Cn4nnc5c(OC)cccc54)[C@@]3(C)CC[C@@H]12` [Compound 28], the IC50 is below 10 nM.
Regarding `COC[C@]12CC[C@@](C)(O)C[C@H]1CC[C@H]1[C@@H]3CC[C@H](C(=O)Cn4nc5ccc(OC)cc5n4)[C@@]3(C)CC[C@@H]12` [Compound 27], the IC50 was below 10 nM.
Turning to `COC[C@]12CC[C@@](C)(O)C[C@@H]1CC[C@H]1[C@@H]3CC[C@H](C(=O)Cn4cc5cc(F)ncc5n4)[C@@]3(C)CC[C@@H]12` [Compound 75], the IC50 lay within 100 to 500 nM.
Take `COC[C@]12CC[C@@](C)(O)C[C@H]1CC[C@H]1[C@@H]3CC[C@H](C(=O)Cn4ncc5cc(F)ccc54)[C@@]3(C)CC[C@@H]12` [Compound 16]: the IC50 is below 10 nM.
Next, `COC[C@]12CC[C@@](C)(O)C[C@H]1CC[C@H]1[C@@H]3CC[C@H](C(=O)Cn4nnnc4C)[C@@]3(C)CC[C@@H]12` [Compound 63]: 100 to 500 nM; `COC[C@]12CC[C@@](C)(O)C[C@@H]1CC[C@H]1[C@@H]3CC[C@H](C(=O)Cn4cc(OC(C)C)cn4)[C@@]3(C)CC[C@@H]12` [Compound 38]: 50 to 100 nM.
The figure for `CC(C)OC[C@]12CC[C@@](C)(O)C[C@H]1CC[C@H]1[C@@H]3CC[C@H](C(=O)Cn4nnc5c(F)c(F)ccc54)[C@@]3(C)CC[C@@H]12` [Compound 68] is below 10 nM; for `COC[C@]12CC[C@@](C)(O)C[C@H]1CC[C@H]1[C@@H]3CC[C@H](C(=O)Cn4cc5ccc(F)cc5n4)[C@@]3(C)CC[C@@H]12` [Compound 14] it is below 10 nM.
The figure for `COC[C@]12CC[C@@](C)(O)C[C@H]1CC[C@H]1[C@@H]3CC[C@H](C(=O)Cn4cc(SC)cn4)[C@@]3(C)CC[C@@H]12` [Compound 21] is below 10 nM; for `COC[C@]12CC[C@@](C)(O)C[C@@H]1CC[C@H]1[C@@H]3CC[C@H](C(=O)Cn4nnc5c(F)c(Cl)ccc54)[C@@]3(C)CC[C@@H]12` [Compound 51] it is below 10 nM; for `COC[C@]12CC[C@@](C)(O)C[C@H]1CC[C@H]1[C@@H]3CC[C@H](C(=O)Cn4ccnc4C)[C@@]3(C)CC[C@@H]12` [Compound 64] it is 100 to 500 nM.
Consider `COC[C@]12CC[C@@](C)(O)C[C@@H]1CC[C@H]1[C@@H]3CC[C@H](C(=O)Cn4nc5cc(Cl)cnc5n4)[C@@]3(C)CC[C@@H]12` [Compound 13], for which the IC50 is below 10 nM.
For the compound `COC[C@]12CC[C@@](C)(O)C[C@H]1CC[C@H]1[C@@H]3CC[C@H](C(=O)Cn4nnc5ccc(OC)cc54)[C@@]3(C)CC[C@@H]12` [Compound 25], the IC50 is below 10 nM.
For the compound `COC[C@]12CC[C@@](C)(O)C[C@@H]1CC[C@H]1[C@@H]3CC[C@H](C(=O)Cn4ccnc4C#N)[C@@]3(C)CC[C@@H]12` [Compound 36], the IC50 lay within 100 to 500 nM.
For the compound `COC[C@]12CC[C@@](C)(O)C[C@@H]1CC[C@H]1[C@@H]3CC[C@H](C(=O)Cn4cc5ccncc5n4)[C@@]3(C)CC[C@@H]12` [Compound 46], the IC50 was 10 to 50 nM.
